{"source": "patent US20260102484A1", "about": "“ADJUVANTS FOR ENHANCING THE IMMUNE RESPONSE” (priority 2022, published 2026)", "key": {"[1]": {"tested_on": "cytokine response to RBD Peptide #9 (IL6, IFNg, TNF, IL17, IL 10)", "set-up": "species or system Mice", "details": "mouse, in vivo"}, "splenic T cells": {"tested_on": "splenic T cells", "test": "Recall response of splenic T cells to peptide #5-palmitic acid, CTFR proliferation dye and FACS", "format": "in vivo, Mice", "details": "immunized subcutaneously with peptide #5-palmitic acid CFA + 10 ug; 14 days later; FIG. 7", "procedure": "Mice were now immunized with peptide 5 and T cells analyzed for proliferation and by FACS analysis. (FIG. 7) Mice were immunized subcutaneously with peptide #5-palmitic acid CFA mixture with and without 10 ug of 1,4-DPCA. 14 days later, splenic T cells were isolated and co-cultured with irradiated feeders in a ratio of 400k:100k to assess recall responses to peptide #5-palmitic acid. T cells from unimmunized mice were used as control. Only T cells were stained with CTFR proliferation dye in order to ensure detection of specific T cell responses.\nIn upper FIG. 7 is the FACS flow cytometry plot, where the labelled cells are T cells. […] Below this, is the analyzed proliferation data, where the yellow line is immunized+10 ug of DPCA was given to mice, the grey line is immunized only, the orange line is control, unimmunized but stimulated in culture, and the blue line is control, unstimulated in culture."}, "[2]": {"tested_on": "antigen-specific (RBD peptide #9) Proliferative T cell response", "set-up": "species or system Mice", "details": "mouse, in vivo"}, "[3]": {"tested_on": "Naïve, central memory, and effector T cells (CD4 and CD8)", "test": "Numbers of naive, central memory and effector memory T cells from lymph nodes and spleen", "format": "in vivo", "details": "peptide 9 and 10 ug or 25 ug of DPCA, FIG. 6", "procedure": "Next, three populations of T cells (Naïve, central memory, and effector T cells) from lymph nodes and spleens were treated with peptide 9 and 10 ug of DPCA or 25 ug of DPCA. An untreated control group and a control group treated with PBS were also tested."}, "[4]": {"tested_on": "myeloid (GR1+CD11b+) cells and lymphoid (CD8+) cells", "test": "FACS analysis of myeloid and lymphoid cells at higher DPCA doses", "format": "in vivo, mice", "procedure": "To explore what is happening at higher DPCA doses and why they may be inhibitory, we tested the effects of different concentrations of DPCA on myeloid (GR1+CD11b+) cells and lymphoid (CD8+) cells. […] Also, the number of GR1+CD11b+myeloid cells is much higher. Within this population of myeloid cells are cells that can suppress T cells.\nAdditionally, cells were immunized with 50 ug of DPCA and compared to an untreated control. The number of cell in each was determined by FACS analysis. […] (See upper panels showing scatter plots with an increased number of cells in treated cells). An analysis of myeloid cell markers GR1 and CD11b was determined in the control and DPCA treated cells. […] (See lower panels)"}}, "data": [{"smiles": "O=C(O)c1c[nH]c2c(ccc3cccnc32)c1=O", "note": "[1,4-DPCA, 1,4-dihydrophenonthrolin-4-one-3-carboxylic acid]", "values": [{"measurement": "IFNg response", "setting": "[1]", "result": "most dramatically affected"}, {"measurement": "cytokine response (IL6, IFNg, TNF, IL17, and IL 10)", "setting": "[1]", "result": "dose-dependent"}, {"measurement": "T cell proliferation (FACS flow cytometry plot)", "setting": "splenic T cells", "result": "increased proliferation"}, {"measurement": "antigen-specific (RBD peptide #9) Proliferative T cell response", "setting": "[2]", "result": "enhances"}, {"measurement": "numbers of memory cells (CD4 and CD8)", "setting": "[3]", "result": "increased numbers"}, {"measurement": "numbers of naïve cells (CD4 and CD8)", "setting": "[3]", "result": "lower numbers"}, {"measurement": "number of large cells (FACS scatter plots)", "setting": "[4]; 50 ug of DPCA vs untreated control, FIG. 5", "result": "increase number of large cells"}, {"measurement": "myeloid cell markers GR1 and CD11b", "setting": "[4]; DPCA treated vs untreated control, FIG. 5 lower panels", "result": "large population of myeloid cells"}, {"measurement": "relationship between lymphoid and myeloid cells", "setting": "[4]; higher DPCA dosage, FIG. 4", "result": "Inverse relationship"}, {"measurement": "number of CD8+T cells", "setting": "[4]; higher DPCA doses, FIG. 4", "result": "reduced"}, {"measurement": "number of GR1+CD11b+myeloid cells", "setting": "[4]; higher DPCA doses, FIG. 4", "result": "much higher"}]}]}
